# Test results published in patent US11059780B2, “Substituted pyrrolidine compound and use thereof” (Takeda Pharmaceutical Company Limited, priority 2017, dated 2021).
# Molecular target: T1, human orexin type 2 receptor (hOX2R) (Homo sapiens, UniProt O43614)
# T1 construct: expressed in transfected cells
# T1 sequence (O43614 1-444): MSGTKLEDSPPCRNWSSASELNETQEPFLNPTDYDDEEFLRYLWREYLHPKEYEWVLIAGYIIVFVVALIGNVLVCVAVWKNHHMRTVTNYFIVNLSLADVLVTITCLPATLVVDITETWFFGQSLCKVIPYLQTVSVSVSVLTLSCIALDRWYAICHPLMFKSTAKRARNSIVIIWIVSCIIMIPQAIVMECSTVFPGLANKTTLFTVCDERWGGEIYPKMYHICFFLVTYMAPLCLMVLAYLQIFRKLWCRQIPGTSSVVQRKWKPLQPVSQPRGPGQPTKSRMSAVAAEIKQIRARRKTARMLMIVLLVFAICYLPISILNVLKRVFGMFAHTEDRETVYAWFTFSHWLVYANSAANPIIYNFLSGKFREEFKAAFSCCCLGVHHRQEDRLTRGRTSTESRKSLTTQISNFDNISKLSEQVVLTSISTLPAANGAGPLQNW
# Assay: Measurement of orexin type 2 receptor agonist activity (Fluo-4 calcium fluorescence, CHO cells forcibly expressing human OX2 receptor)
# Type: cell-based
# Conditions: test compound 3 μM, DMSO = 0%, orexin A (human) 10 nM = 100%
# Description: Experimental Example 1: Obtainment of Cell Stably Expressing Human Orexin Type 2 Receptor (hOX2R)
# To obtain a cell clone stably expressing human orexin type 2 receptor, human orexin type 2 receptor cDNA was inserted into pcDNA3.1(+) plasmid vector (Invitrogen), and a plasmid DNA for expression of human orexin type 2 receptor (pcDNA3.1(+)/hOX2R) was cloned. The plasmid DNA was introduced into CHO-dhfr cell by an electroporation method, and human orexin type 2 receptor expressing clone cells were obtained by limiting dilution method by using G418 drug resistance as a selection marker.
# Experimental Example 2: Measurement of Orexin Type 2 Receptor Agonist Activity
# CHO cells forcibly expressing human OX2 receptor were seeded in each well of 384 well black transparent bottom plate (BD Falcon) at 7,500 cells/well, and cultured for one day in a 5% CO2 incubator at 37° C. After removal of the medium in the cell plate, assay buffer A containing a calcium indicator (HBSS (Life Technologies), 20 mM HEPES (Life Technologies), 0.1% BSA (Wako Pure Chemical Industries, Ltd.), 2.5 μg/mL Fluo-4 AM (DOJINDO Chemical), 0.08% Pluronic F127 (DOJINDO Chemical), 1.25 mM probenecid (DOJINDO Chemical)) was added at 30 μL/well. The plate was stood for 30 min in a 5% CO2 incubator at 37° C., and further stood at room temperature for 30 min. A test compound prepared by diluting with assay buffer B (HBSS, 20 mM HEPES, 0.1% BSA) was added at 10 μL/well, and the fluorescence value was measured by FDSSpCELL (Hamamatsu Photonics K.K.) every one sec for 1 min, and thereafter every two sec for 1 min 40 sec. The activity (%) of the test compound was calculated assuming that variation in the fluorescence value when DMSO was added instead of the test compound was 0% […], and variation in the fluorescence value when orexin A (human) (PEPTIDE INSTITUTE, INC.) was added at the final concentration of 10 nM was 100% […]. The activity of each compound at the concentration of 3 μM was shown below.
row,"OX2R agonist activity (3 μM, %)",Structure (SMILES)
1,102%,"COc1nccc(C)c1C(=O)N1C[C@@H](OC)[C@H](Oc2cccc(CS(=O)(=O)N(C)C3CCOCC3)c2)C1 (relative stereo) [Example 161, trans-1-(3-((4-methoxy-1-((2-methoxy-4-methylpyridin-3-yl)carbonyl)pyrrolidin-3-yl)oxy)phenyl)-N-methyl-N-(tetrahydro-2H-pyran-4-yl)methanesulfonamide]"
2,99%,"CCc1cccc(C)c1C(=O)N1C[C@@H](OC)[C@H](Oc2cccc(C(F)S(=O)(=O)N(C)C3CCOCC3)c2)C1 (relative stereo) [Example 154, trans-1-(3-((1-(2-ethyl-6-methylbenzoyl)-4-methoxypyrrolidin-3-yl)oxy)phenyl)-1-fluoro-N-methyl-N-(tetrahydro-2H-pyran-4-yl)methanesulfonamide]"
3,99%,"COc1cccc(C)c1C(=O)N1CC(OC)C(Oc2cccc(CS(=O)(=O)N3CCCC3c3ccc(C)nc3C)c2)C1 (stereo not drawn) [Example 124, trans-3-(3-(((2-(2,6-dimethylpyridin-3-yl)pyrrolidin-1-yl)sulfonyl)methyl)phenoxy)-4-methoxypyrrolidin-1-yl)(2-methoxy-6-methylphenyl)methanone]"
4,90%,"COc1cccc(C)c1C(=O)N1C[C@@H](OC)[C@H](Oc2cccc(NS(=O)(=O)N(C)C)c2)C1 [Example 135, N′-(3-(((3R,4R)-4-methoxy-1-(2-methoxy-6-methylbenzoyl)pyrrolidin-3-yl)oxy)phenyl)-N,N-dimethylsulfuric diamide]"
5,43%,"CCc1cccc(C)c1C(=O)N1C[C@@H](OC)[C@H](Oc2cccc(C(F)(F)S(=O)(=O)N(C)C3CCOCC3)c2)C1 (relative stereo) [Example 150, trans-1-(3-((1-(2-ethyl-6-methylbenzoyl)-4-methoxypyrrolidin-3-yl)oxy)phenyl)-1,1-difluoro-N-methyl-N-(tetrahydro-2H-pyran-4-yl)methanesulfonamide]"
6,105%,"CO[C@@H]1CN(C(=O)c2ccccc2C2CC2)C[C@H]1Oc1cccc(CS(=O)(=O)N(C)C2CCOCC2)c1 (relative stereo) [Example 153, trans-1-(3-((1-(2-cyclopropylbenzoyl)-4-methoxypyrrolidin-3-yl)oxy)phenyl)-N-methyl-N-(tetrahydro-2H-pyran-4-yl)methanesulfonamide]"
7,41%,"CO[C@@H]1CN(C(=O)c2c(C)cccc2C2CC2)C[C@H]1Oc1cccc(OS(=O)(=O)N2CCOCC2)c1 (relative stereo) [Example 166, trans-3-((1-(2-cyclopropyl-6-methylbenzoyl)-4-methoxypyrrolidin-3-yl)oxy)phenyl morpholine-4-sulfonate]"
8,89%,"CCc1cccc(C)c1C(=O)N1CC[C@H](Oc2cccc(CS(=O)(=O)N(C)C3CCOCC3)c2)C1 [Example 159, 1-(3-(((3S)-1-(2-ethyl-6-methylbenzoyl)pyrrolidin-3-yl)oxy)phenyl)-N-methyl-N-(tetrahydro-2H-pyran-4-yl)methansulfo]"

# The next lines start with the compound.
row,Structure (SMILES),"OX2R agonist activity (3 μM, %)"
1,"CO[C@@H]1CN(C(=O)c2cc(C)ccc2C)C[C@H]1Oc1cccc(CS(=O)(=O)N2CCCC2Cc2cccnc2)c1 (relative stereo) [Example 36, trans-(2,5-dimethylphenyl)(3-methoxy-4-(3-(((2-(pyridin-3-ylmethyl)pyrrolidin-1-yl)sulfonyl)methyl)phenoxy)pyrrolidin-1-yl)methanone]",89%
2,"CO[C@@H]1CN(C(=O)c2cc(C)ccc2C)C[C@H]1Oc1cccc(CS(=O)(=O)N2CCC23CN(C(C)=O)C3)c1 (relative stereo) [Example 90, trans-1-(1-((3-((1-(2,5-dimethylbenzoyl)-4-methoxypyrrolidin-3-yl)oxy)benzyl)sulfonyl)-1,6-diazaspiro[3.3]hept-6-yl)ethanone]",96%
3,"CO[C@@H]1CN(C(=O)c2cc(C)ccc2C)C[C@H]1Oc1cccc(NS(=O)(=O)N2CCOC(C)C2)c1 (relative stereo) [Example 54, trans-N-(3-((1-(2,5-dimethylbenzoyl)-4-methoxypyrrolidin-3-yl)oxy)phenyl)-2-methylmorpholine-4-sulfonamide]",85%
4,"COc1ccc(Cl)cc1C(=O)N1C[C@@H](OC)[C@H](Oc2cccc(CS(=O)(=O)N3CCCC3c3ccccn3)c2)C1 (relative stereo) [Example 108, trans-(5-chloro-2-methoxyphenyl)(3-methoxy-4-(3-(((2-(pyridin-2-yl)pyrrolidin-1-yl)sulfonyl)methyl)phenoxy)pyrrolidin-1-yl)methanone]",74%
5,"COC1CN(C(=O)c2cc(C)ccc2C)CC1Oc1cc(NS(=O)(=O)N2C[C@@H]3C[C@H]3C2)cc(F)n1 (relative stereo) [Example 116, trans-N-(2-((1-(2,5-dimethylbenzoyl)-4-methoxypyrrolidin-3-yl)oxy)-6-fluoropyridin-4-yl)-3-azabicyclo[3.1.0]hexane-3-sulfonamide]",68%
6,"CO[C@@H]1CN(C(=O)c2cc(C)ccc2C)C[C@H]1Oc1cccc(NS(=O)(=O)N(C)CC2CCOC2)c1 (relative stereo) [Example 62, trans-N′-(3-((1-(2,5-dimethylbenzoyl)-4-methoxypyrrolidin-3-yl)oxy)phenyl)-N-methyl-N-(tetrahydrofuran-3-ylmethyl)sulfuric diamide]",74%
7,"CO[C@@H]1CN(C(=O)c2cc(C)ccc2C)C[C@H]1Oc1cccc(CS(=O)(=O)N2CCC23CCN(C(=O)OC(C)(C)C)C3)c1 (relative stereo) [Example 33, tert-butyl trans-1-((3-((1-(2,5-dimethylbenzoyl)-4-methoxypyrrolidin-3-yl)oxy)benzyl)sulfonyl)-1,6-diazaspiro[3.4]octane-6-carboxylate]",105%
8,"CO[C@@H]1CN(C(=O)c2cc(C)ccc2C)C[C@H]1Oc1cccc(NS(=O)(=O)N(C)C2CC2)c1 (relative stereo) [Example 44, trans-N-cyclopropyl-N′-(3-((1-(2,5-dimethylbenzoyl)-4-methoxypyrrolidin-3-yl)oxy)phenyl)-N-methylsulfuric diamide]",73%
9,"CO[C@@H]1CN(C(=O)c2cc(C)ccc2C)C[C@H]1Oc1cccc(NS(=O)(=O)N(C)C2COC2)c1 (relative stereo) [Example 45, trans-N′-(3-((1-(2,5-dimethylbenzoyl)-4-methoxypyrrolidin-3-yl)oxy)phenyl)-N-methyl-N-oxetan-3-ylsulfuric diamide]",82%
10,"CO[C@@H]1CN(C(=O)c2cc(C)ccc2C)C[C@H]1Oc1cccc(CS(=O)(=O)N2CCCC2)c1 (relative stereo) [Example 5, trans-(2,5-dimethylphenyl)(3-methoxy-4-(3-((pyrrolidin-1-ylsulfonyl)methyl)phenoxy)pyrrolidin-1-yl)methanone]",32%
11,"CO[C@@H]1CN(C(=O)c2cc(C)ccc2C)C[C@H]1Oc1cccc(CS(=O)(=O)N2CCCC2c2cccnc2)c1 (relative stereo) [Example 16, trans-(2,5-dimethylphenyl)(3-methoxy-4-(3-(((2-(pyridin-3-yl)pyrrolidin-1-yl)sulfonyl)methyl)phenoxy)pyrrolidin-1-yl)methanone]",77%
12,"Cc1ccc(C)c(C(=O)N2CC[C@H](Oc3cccc(CS(=O)(=O)N4CCCC4c4ccccn4)c3)C2)c1 (stereo partly drawn) [Example 25, (2,5-dimethylphenyl)((3S)-3-(3-(((2-(pyridin-2-yl)pyrrolidin-1-yl)sulfonyl)methyl)phenoxy)pyrrolidin-1-yl)methanone]",29%
13,"CO[C@@H]1CN(C(=O)c2cc(C)ccc2C)C[C@H]1Oc1cccc(NS(=O)(=O)N2CCC2)c1 (relative stereo) [Example 48, trans-N-(3-((1-(2,5-dimethylbenzoyl)-4-methoxypyrrolidin-3-yl)oxy)phenyl)azetidine-1-sulfonamide]",62%
